Measurements reported in PMC12281142, “A potent phenylalkylamine disrupts mycobacterial membrane bioenergetics and augments bactericidal activity of bedaquiline” (iScience, 2025).
Values after ≈ are worked out from the molar mass of the structure shown. Read-outs that look alike come from different tables or passages of the source.

What was measured:
M. bovis BCG [1] = assay: microbe, parasite or virus in culture; type: cell-based, Mycobacterium bovis BCG
Mab abscessus ATCC 19977 = assay: MIC against Mab abscessus ATCC 19977; type: cell-based, Mycobacterium abscessus subsp. abscessus; details: for MIC90: read-out: MIC90 Mab abscessus ATCC 19977; for MIC50 Mab abscessus ATCC 19977: 3 days
[2] = tested on: Mab massiliense CCUG 48898-T; assay: MIC against Mab massiliense CCUG 48898-T; type: cell-based, Mycobacterium abscessus subsp. massiliense; details: for MIC50 Mab massiliense CCUG 48898-T: 3 days
[3] = tested on: Mab bolletii CCUG 50184-T; assay: MIC against Mab bolletii CCUG 50184-T; type: cell-based, Mycobacterium abscessus subsp. bolletii; details: for MIC50 Mab bolletii CCUG 50184-T: 3 days
Vero E6 = assay: Cytotoxicity in Vero E6 cells; type: cell-based, African green monkey; details: 48 h, growth suppressed by 50% vs untreated
Procedure: (§1) To each well in a 96-well plate, 50,000 cells in 100 μL media were seeded. Vero E6 and HepG2 cells were incubated overnight in DMEM for cell adherence at 37°C and 5% CO2. The media was removed from the wells and 100 μL solution made up of fresh DMEM media (99 μL) and the test compound (1 μL from a DMSO stock solution that was […] more concentrated than the final concentration in the well) was then added to each well. DMSO content of each well was consistently kept at 0.5 %v/v. Treated plates were incubated for 48 h (5% CO2, 37°C), after which 10 μL of Celltitre 96 Aqueous One Solution was added to each well, without removal of media, and incubated for a further 3 h. Subsequently, absorbance readings were taken at 490 nm on a Tecan GENios Microplate Reader.
(§2) Cell viability was determined from the expression: Cellviability(%)={[Absorbance(cells+cpd)−Absorbance(cpd)]/[Absorbance(cells+vc)−Absorbance(vc)]}×100% where Absorbance (cells + cpd) = absorbance of wells containing cells and test compound in vehicle (media +0.5% DMSO); Absorbance (cpd) = absorbance of wells containing test compound in vehicle without cells (compound control); Absorbance (cells + vc) = absorbance of wells containing cells in vehicle (vc) only (untreated cells); Absorbance (vc) = absorbance of wells containing vehicle without cells (vehicle control). The percentage viability readings were plotted against log(concentration) on GraphPad Prism (Version 7.0, San Diego, CA) to give a sigmoidal curve, from which IC50, defined as the concentration of the compound that reduced cell viability by 50%, was obtained. At least 3 separate determinations were carried out.

HepG2 = assay: Cytotoxicity in HepG2 cells; type: cell-based, human; details: 48 h, growth suppressed by 50% vs untreated
Procedure: as §1, §2

M. bovis BCG [4] = type: cell-based, Mycobacterium bovis BCG
Mtb H37Rv = assay: MIC by broth microdilution against Mtb H37Rv; type: cell-based, Mycobacterium tuberculosis; details: incubation 5 days; for MIC50 Mtb H37Rv: first value of cell MIC50/MIC90
[5] = 7H9 medium (first value of cell)
[6] = CA-MHB medium (second value of cell)

| Structure (SMILES) | MIC50 (M. bovis BCG [1]) | MIC90 (M. bovis BCG [1]) | MIC90 (Table S1) (M. bovis BCG [1]) | MIC50 BCG With Glycerol (M. bovis BCG [1]) | MIC50 BCG Without Glycerol (M. bovis BCG [1]) | MIC90 BCG (M. bovis BCG [1]) | MIC90 (Mab abscessus ATCC 19977; 7H9 broth (first value)) | MIC50 Mab abscessus ATCC 19977 (Mab abscessus ATCC 19977; [5]) | MIC90 ([2]; 7H9 broth (first value)) | MIC50 Mab massiliense CCUG 48898-T [2, 5] | MIC90 ([3]; 7H9 broth (first value)) | MIC50 Mab bolletii CCUG 50184-T [3, 5] | IC50 (Vero E6) | IC50 (HepG2) | MIC50 Mtb H37Rv (Mtb H37Rv) | MIC50 Mab abscessus ATCC 19977 (Mab abscessus ATCC 19977; [6]) | MIC90 (Mab abscessus ATCC 19977; camH broth (second value)) | MIC50 Mab massiliense CCUG 48898-T [2, 6] | MIC90 ([2]; camH broth (second value)) | MIC90 ([3]; camH broth (second value)) | further results |
| --- | --- | --- | --- | --- | --- | --- | --- | --- | --- | --- | --- | --- | --- | --- | --- | --- | --- | --- | --- | --- | --- |
| COc1ccc(C(C#N)(CCCN(C)CCc2ccc(Cl)c(Cl)c2)C(C)C)cc1OC (stereo not drawn) [PhA8] | 26 µM (≈ 12 µg/mL) | 45 µM (≈ 20.9 µg/mL) | 45 µM (≈ 20.9 µg/mL) |  |  |  |  |  |  |  |  |  |  |  |  |  |  |  |  |  |  |
| COc1ccc(CCN(C)CCCCCCCCCCC(C#N)(c2ccc(OC)c(OC)c2)C(C)C)cc1OC (stereo not drawn) [PhA9] | 11 µM (≈ 6.08 µg/mL) | 22 µM (≈ 12.2 µg/mL) | 22 µM (≈ 12.2 µg/mL) | 11 µM (≈ 6.08 µg/mL) | 22 µM (≈ 12.2 µg/mL) | 12 mg/L (≈ 21.7 µM) | 190 µM (≈ 105 µg/mL) | 74/– ^e uM | > 200 µM | 123/– ^e uM | 200 µM (≈ 111 µg/mL) | 103/– ^e uM | 15 µM | 15 µM |  |  |  |  |  |  | MBC99.9 (10^3-fold kill) (M. bovis BCG [4]): 2 x MIC90 |
| COc1ccc(CCN(C)CCCCCCCCCCCCC(C#N)(c2ccc(OC)c(OC)c2)C(C)C)cc1OC (stereo not drawn) [PhA10] | 18 µM (≈ 10.5 µg/mL) | 32 µM (≈ 18.6 µg/mL) | 32 µM (≈ 18.6 µg/mL) |  |  |  |  |  |  |  |  |  |  |  |  |  |  |  |  |  |  |
| COc1ccc(CCN(C)CCCC(C#N)(CCC2CCCCC2)c2ccc(Cl)c(Cl)c2)cc1OC (stereo not drawn) [PhA11] | 14 µM (≈ 7.44 µg/mL) | 25 µM (≈ 13.3 µg/mL) | 25 µM (≈ 13.3 µg/mL) |  | 46 µM (≈ 24.5 µg/mL) | 13 mg/L (≈ 24.5 µM) | > 250 µM | > 250 µM | > 250 µM | > 250 µM | > 250 µM | > 250 µM | 57 µM | 44 µM | 19/40 μM | 175 µM (≈ 93 µg/mL) | > 250 µM | 21 µM (≈ 11.2 µg/mL) | > 250 µM | > 250 µM | MIC90 Mtb H37Rv (Mtb H37Rv): 19/40 μM; MIC50 Mab bolletii CCUG 50184-T [3, 6]: 160 µM (≈ 85.1 µg/mL) |
| CCCCCCCCC(C#N)(CCCN(C)CCc1ccc(OC)c(OC)c1)c1ccc(Cl)c(Cl)c1 (stereo not drawn) [PhA12] | 16 µM (≈ 8.54 µg/mL) | 29 µM (≈ 15.5 µg/mL) | 29 µM (≈ 15.5 µg/mL) |  | 35 µM (≈ 18.7 µg/mL) | 16 mg/L (≈ 30 µM) | > 250 µM | > 250 µM | > 250 µM | > 250 µM | > 250 µM | > 250 µM | 69 µM | 51 µM | 23/46 μM | 194 µM (≈ 104 µg/mL) | > 250 µM | 31 µM (≈ 16.5 µg/mL) | > 250 µM | > 250 µM | MIC90 Mtb H37Rv (Mtb H37Rv): 23/46 μM; MIC50 Mab bolletii CCUG 50184-T [3, 6]: 72 µM (≈ 38.4 µg/mL); MBC99.9 (10^3-fold kill) (M. bovis BCG [4]): 4 x MIC90 |
| COc1ccc(CCN(C)CCCC(C#N)(CC=C(C)CCC=C(C)C)c2ccc(Cl)c(Cl)c2)cc1OC (stereo not drawn) [PhA13] | 12 µM (≈ 6.69 µg/mL) | 23 µM (≈ 12.8 µg/mL) | 23 µM (≈ 12.8 µg/mL) | 12 µM (≈ 6.69 µg/mL) | 30 µM (≈ 16.7 µg/mL) | 13 mg/L (≈ 23.3 µM) | > 250 µM | >250/250 uM | > 250 µM | > 250 µM | > 250 µM |  | 60 µM | 42 µM | 21 µM (≈ 11.7 µg/mL) | >250/250 uM | > 250 µM | 23 µM (≈ 12.8 µg/mL) | > 250 µM | > 250 µM | MIC90 (Mtb H37Rv; second value of cell MIC50/MIC90, read-out: MIC90 Mtb H37Rv): 45 µM (≈ 25.1 µg/mL) |
